Data reported in ChEMBL document CHEMBL5465560, “Selectivity Literature for EUbOPEN Chemogenomic Library” (2024).
One block for each compound: values may come before it.

Assays:
[1] = target: Dual specificity protein kinase CLK3 (Homo sapiens, UniProt P49761); test: Selectivity interaction (Kinase panel (Z-LYTE Assay)) EUB0001632a CLK3; details: at 10 µM
[2] = target: T1, Tyrosine-protein kinase receptor TYRO3 (Homo sapiens) (UniProt Q06418); test: Selectivity interaction (KinomeScan (DiscoverX)) EUB0000666a TYRO3; details: at 10 µM
T1 sequence (whole entry): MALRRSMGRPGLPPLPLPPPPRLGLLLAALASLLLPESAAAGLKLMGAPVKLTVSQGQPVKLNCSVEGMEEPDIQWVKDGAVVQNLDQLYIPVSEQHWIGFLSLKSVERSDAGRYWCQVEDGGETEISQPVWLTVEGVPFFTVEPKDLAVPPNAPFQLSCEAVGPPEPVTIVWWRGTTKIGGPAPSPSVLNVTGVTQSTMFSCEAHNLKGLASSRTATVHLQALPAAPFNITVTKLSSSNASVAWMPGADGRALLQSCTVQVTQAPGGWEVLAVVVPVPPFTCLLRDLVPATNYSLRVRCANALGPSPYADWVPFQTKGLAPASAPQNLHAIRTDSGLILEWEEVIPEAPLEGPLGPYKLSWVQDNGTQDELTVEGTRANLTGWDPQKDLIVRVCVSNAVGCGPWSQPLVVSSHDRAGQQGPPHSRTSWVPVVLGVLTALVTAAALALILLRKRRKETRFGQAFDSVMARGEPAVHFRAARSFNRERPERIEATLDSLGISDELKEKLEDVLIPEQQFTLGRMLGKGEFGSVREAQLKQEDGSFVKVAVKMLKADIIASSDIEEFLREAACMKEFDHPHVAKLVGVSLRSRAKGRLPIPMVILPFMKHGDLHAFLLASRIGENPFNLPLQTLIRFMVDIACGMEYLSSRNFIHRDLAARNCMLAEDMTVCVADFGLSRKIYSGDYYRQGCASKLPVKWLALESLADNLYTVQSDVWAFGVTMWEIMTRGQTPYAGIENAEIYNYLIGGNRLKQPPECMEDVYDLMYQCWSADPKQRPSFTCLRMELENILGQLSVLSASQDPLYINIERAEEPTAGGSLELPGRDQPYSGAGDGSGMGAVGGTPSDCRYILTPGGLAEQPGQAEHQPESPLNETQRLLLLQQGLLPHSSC

[3] = target: Dual specificity tyrosine-phosphorylation-regulated kinase 1A (Homo sapiens, UniProt Q13627); test: Selectivity interaction (KinomeScan (DiscoverX)) EUB0000607a DYRK1A; details: at 10 µM
[4] = target: T2, Phosphatidylinositol 5-phosphate 4-kinase type-2 gamma (Homo sapiens) (UniProt Q8TBX8); test: Selectivity interaction (KinomeScan (DiscoverX)) EUB0000607a PIP4K2C; details: at 10 µM
T2 sequence (whole entry): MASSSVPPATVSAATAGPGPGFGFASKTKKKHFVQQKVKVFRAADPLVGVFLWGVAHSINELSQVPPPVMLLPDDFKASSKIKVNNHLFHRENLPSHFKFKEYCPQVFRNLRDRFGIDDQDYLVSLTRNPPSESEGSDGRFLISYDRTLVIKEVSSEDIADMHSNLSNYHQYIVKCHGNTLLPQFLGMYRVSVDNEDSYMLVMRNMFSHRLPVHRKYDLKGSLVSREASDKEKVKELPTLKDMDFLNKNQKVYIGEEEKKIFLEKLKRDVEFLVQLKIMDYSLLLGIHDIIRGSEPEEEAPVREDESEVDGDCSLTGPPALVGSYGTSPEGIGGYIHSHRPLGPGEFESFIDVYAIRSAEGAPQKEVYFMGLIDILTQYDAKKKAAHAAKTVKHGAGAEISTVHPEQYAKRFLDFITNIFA

[5] = target: Protein arginine N-methyltransferase 1 (Homo sapiens, UniProt Q99873); test: Selectivity interaction (Methyltransferase screen (radiometric assays, panel of 8 PRMTs, 21 protein lysine methyltransferases, 3 DNA methyltransferases, and one RNA methyltransferase)) EUB0000271b PRMT1
Sequence of Protein arginine N-methyltransferase 1 (Q99873 whole entry, looked up): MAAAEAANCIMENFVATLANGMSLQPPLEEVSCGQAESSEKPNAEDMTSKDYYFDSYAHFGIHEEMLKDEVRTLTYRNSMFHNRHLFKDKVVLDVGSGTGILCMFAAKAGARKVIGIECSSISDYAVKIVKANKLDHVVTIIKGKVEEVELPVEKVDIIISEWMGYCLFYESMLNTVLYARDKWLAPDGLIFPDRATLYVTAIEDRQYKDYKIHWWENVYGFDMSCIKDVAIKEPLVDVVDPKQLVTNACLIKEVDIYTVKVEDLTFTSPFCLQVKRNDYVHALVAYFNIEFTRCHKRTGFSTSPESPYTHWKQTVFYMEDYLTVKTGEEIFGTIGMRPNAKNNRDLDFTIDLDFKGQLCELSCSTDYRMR

[6] = target: Serine/threonine-protein kinase 38 (Homo sapiens) (UniProt Q15208); test: Selectivity interaction (KinomeScan (DiscoverX)) EUB0000595a STK38; details: at 10 µM
Sequence of Serine/threonine-protein kinase 38 (Homo sapiens) (Q15208 2-465 limits assumed): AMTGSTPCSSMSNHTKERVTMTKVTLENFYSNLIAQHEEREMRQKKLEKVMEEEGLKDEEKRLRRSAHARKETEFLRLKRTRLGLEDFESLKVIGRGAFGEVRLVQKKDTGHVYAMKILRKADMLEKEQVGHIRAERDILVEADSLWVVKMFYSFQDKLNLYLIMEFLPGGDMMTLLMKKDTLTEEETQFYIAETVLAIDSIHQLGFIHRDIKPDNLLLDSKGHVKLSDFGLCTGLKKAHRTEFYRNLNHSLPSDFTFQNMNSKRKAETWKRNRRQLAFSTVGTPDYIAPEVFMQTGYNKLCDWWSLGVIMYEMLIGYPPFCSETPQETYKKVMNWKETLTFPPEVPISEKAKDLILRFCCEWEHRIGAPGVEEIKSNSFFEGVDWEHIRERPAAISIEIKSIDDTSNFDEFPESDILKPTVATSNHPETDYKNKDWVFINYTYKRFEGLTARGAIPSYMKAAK

[7] = target: Bone morphogenetic protein receptor type-1A (Homo sapiens, UniProt P36894); test: Selectivity interaction (KinomeScan (DiscoverX)) EUB0001049a BMPR1A; details: at 1 µM
Sequence of Bone morphogenetic protein receptor type-1A (P36894 whole entry): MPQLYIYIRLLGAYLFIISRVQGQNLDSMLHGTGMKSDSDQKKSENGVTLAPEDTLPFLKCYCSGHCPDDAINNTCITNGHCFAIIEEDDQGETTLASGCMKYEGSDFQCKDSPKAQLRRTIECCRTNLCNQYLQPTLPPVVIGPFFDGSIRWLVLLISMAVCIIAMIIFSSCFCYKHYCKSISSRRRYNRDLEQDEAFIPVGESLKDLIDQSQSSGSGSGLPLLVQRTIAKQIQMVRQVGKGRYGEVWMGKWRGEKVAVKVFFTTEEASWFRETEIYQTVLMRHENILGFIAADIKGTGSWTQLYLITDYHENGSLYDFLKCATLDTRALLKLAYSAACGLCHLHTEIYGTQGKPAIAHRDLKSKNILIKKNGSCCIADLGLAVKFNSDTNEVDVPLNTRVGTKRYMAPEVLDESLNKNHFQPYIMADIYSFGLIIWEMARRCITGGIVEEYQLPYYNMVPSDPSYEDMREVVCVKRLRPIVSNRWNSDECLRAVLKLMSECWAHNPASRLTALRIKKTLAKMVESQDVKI

[8] = target: Cyclin-dependent kinase-like 1 (Homo sapiens) (UniProt Q00532); test: Selectivity interaction (Kinase panel (DSF assay)) EUB0001558a CDKL1
Sequence of Cyclin-dependent kinase-like 1 (Homo sapiens) (Q00532 whole entry): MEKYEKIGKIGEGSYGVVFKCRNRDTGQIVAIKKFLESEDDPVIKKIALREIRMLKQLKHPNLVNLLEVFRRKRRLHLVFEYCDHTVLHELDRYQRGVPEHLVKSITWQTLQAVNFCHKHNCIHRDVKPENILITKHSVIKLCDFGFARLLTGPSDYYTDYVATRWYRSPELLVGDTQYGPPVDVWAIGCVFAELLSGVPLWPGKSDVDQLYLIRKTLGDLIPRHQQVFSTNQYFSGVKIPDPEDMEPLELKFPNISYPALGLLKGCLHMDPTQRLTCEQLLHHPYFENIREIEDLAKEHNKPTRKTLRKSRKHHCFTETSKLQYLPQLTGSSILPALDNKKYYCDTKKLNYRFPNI

[9] = target: T3, Atypical kinase COQ8B, mitochondrial (Homo sapiens) (UniProt Q96D53); test: Selectivity interaction (KinomeScan (DiscoverX)) EUB0000655a ADCK4; details: at 10 µM
T3 sequence (whole entry): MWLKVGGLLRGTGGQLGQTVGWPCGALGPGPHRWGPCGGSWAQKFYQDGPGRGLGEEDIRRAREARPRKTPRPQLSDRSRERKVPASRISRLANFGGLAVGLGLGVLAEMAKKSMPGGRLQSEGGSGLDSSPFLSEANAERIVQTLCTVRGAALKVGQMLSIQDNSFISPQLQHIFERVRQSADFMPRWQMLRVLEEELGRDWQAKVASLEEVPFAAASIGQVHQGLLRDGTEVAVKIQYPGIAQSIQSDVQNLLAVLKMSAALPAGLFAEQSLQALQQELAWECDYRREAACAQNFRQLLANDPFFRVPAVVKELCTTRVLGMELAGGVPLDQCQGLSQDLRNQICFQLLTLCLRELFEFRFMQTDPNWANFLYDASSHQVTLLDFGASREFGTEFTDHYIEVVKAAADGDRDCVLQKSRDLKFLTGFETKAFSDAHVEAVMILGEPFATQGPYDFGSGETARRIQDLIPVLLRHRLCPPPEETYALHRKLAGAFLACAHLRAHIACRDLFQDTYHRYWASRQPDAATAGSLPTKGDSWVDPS

[10] = target: Serine/threonine-protein kinase tousled-like 2 (Homo sapiens) (UniProt Q86UE8); test: Selectivity interaction (KinomeScan (DiscoverX)) EUB0000045b TLK2
Sequence of Serine/threonine-protein kinase tousled-like 2 (Homo sapiens) (Q86UE8 whole entry, looked up): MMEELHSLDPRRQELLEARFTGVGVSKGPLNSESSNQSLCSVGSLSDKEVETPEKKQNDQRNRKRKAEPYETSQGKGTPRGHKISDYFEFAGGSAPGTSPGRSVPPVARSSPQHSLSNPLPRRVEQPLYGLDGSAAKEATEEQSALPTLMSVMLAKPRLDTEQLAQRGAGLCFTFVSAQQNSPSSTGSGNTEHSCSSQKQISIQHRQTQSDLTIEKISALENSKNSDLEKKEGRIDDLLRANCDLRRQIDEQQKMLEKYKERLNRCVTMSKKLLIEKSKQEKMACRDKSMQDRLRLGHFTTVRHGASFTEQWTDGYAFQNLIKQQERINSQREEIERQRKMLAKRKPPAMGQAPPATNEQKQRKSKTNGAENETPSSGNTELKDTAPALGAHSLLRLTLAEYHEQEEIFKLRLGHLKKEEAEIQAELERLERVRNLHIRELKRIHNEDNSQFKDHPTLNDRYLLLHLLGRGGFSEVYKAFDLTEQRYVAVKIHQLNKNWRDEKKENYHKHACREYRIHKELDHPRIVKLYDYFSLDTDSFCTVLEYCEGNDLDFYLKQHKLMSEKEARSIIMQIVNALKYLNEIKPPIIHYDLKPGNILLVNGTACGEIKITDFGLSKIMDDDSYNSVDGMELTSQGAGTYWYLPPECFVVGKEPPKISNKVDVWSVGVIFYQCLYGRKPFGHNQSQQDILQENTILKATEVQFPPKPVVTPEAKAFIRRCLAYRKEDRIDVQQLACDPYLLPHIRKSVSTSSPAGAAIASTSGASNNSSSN

[11] = target: Serine/threonine-protein kinase 26 (Homo sapiens, UniProt Q9P289); test: Selectivity interaction (KinomeScan (DiscoverX)) EUB0001079a STK26; details: at 1 µM
Sequence of Serine/threonine-protein kinase 26 (Q9P289 2-416 limits assumed): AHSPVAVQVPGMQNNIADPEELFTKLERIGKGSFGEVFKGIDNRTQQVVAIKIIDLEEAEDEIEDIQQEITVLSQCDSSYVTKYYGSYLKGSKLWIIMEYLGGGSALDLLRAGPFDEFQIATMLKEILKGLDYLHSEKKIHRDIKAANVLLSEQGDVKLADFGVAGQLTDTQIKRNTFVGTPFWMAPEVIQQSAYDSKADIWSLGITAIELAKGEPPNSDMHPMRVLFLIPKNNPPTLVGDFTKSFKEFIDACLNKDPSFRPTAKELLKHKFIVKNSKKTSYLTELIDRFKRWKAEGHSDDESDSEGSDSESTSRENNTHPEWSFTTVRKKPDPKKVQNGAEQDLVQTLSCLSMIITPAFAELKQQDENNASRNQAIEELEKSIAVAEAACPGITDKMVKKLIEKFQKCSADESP

Sequence of Dual specificity protein kinase CLK3 (P49761 whole entry, looked up): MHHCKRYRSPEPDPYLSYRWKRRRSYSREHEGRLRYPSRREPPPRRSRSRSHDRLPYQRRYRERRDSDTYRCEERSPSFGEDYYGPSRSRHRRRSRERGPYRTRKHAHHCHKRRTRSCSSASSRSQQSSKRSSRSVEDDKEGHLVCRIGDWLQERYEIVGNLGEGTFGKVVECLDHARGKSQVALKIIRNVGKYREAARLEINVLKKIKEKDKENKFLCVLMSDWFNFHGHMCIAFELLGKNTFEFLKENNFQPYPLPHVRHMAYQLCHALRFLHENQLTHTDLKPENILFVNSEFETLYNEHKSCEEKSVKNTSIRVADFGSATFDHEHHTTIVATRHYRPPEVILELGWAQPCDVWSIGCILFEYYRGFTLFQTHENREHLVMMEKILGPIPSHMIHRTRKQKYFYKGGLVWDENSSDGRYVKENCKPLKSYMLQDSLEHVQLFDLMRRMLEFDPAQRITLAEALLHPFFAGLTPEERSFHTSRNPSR

- % of control [1]: 8.16%
Structure (SMILES): Cn1cc(-n2cnc3c(NCc4nc5cc(Cl)c(Cl)cc5[nH]4)nc(N4CCOCC4)nc32)cn1

Structure (SMILES): O=C(NOC[C@H](O)CO)c1ccc(F)c(F)c1Nc1ccc(I)cc1F
- % of control [2]: 80%

Structure (SMILES): CNC(=O)Nc1ccc(-c2nc(N3CC4CCC(C3)O4)c3cnn(C4CCC5(CC4)OCCO5)c3n2)cc1
- % of control [3]: 100%
- % of control [4]: 100%

Structure (SMILES): Cc1cc(C)cc([C@@H]2c3cc(C)ccc3NC(=O)CN2C(=O)c2ccc(Br)s2)c1
- % of activity ([5]; at 1 µM): 98.3%
- % of activity ([5]; at 10 µM): 94.3%

Structure (SMILES): COCC(=O)NC/C=C/c1ccc2ncnc(Nc3ccc(Oc4ccc(C)nc4)c(C)c3)c2c1 [CP-724714]
- % of control [6]: 73%

Structure (SMILES): COc1cc(Nc2nc(C)cc(-c3cnn4nc(OC)ccc34)n2)cc(C(F)(F)F)c1
- % of control [7]: 100%

Structure (SMILES): CC(C)(O)[C@H](F)CN1Cc2cc(NC(=O)c3cnn4cccnc34)c(N3CCOCC3)cc2C1=O
- dTM [8]: -0.4 K

Structure (SMILES): CN(C)CCOc1ccc(-c2nc(-c3ccncc3)c(-c3ccc4c(c3)CC/C4=N\O)[nH]2)cc1
- % of control [9]: 45%

Structure (SMILES): C=CC(=O)Nc1cc(-n2c(=O)ccc3cnc4ccc(-c5ccc(NS(C)(=O)=O)cc5)cc4c32)ccc1C
- % of control ([10]; at 1 µM): 100%
- % of control ([10]; at 10 µM): 100%

Structure (SMILES): Nc1cnc(N2CCc3cc(S(=O)(=O)Nc4c(F)cc(Cl)cc4F)cc(N4CCCC4=O)c32)nc1 [TP-020n]
- % of control [11]: 83%
